In the supplement of paper PMC10307832:

Legend:
Test in all cases: relative viability (nuclei count vs DMSO), 5 days (fraction); higher = more cells survive
[1] = compound: C[As](C)SC[C@H](NC(=O)CC[C@H](N)C(=O)O)C(=O)NCC(=O)O [Darinaparsin] + O=C(CCCCCCC(=O)Nc1ccccc1)NO [Vorinostat] (partner 1 µM)
Outline: (§1)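 After 5 days of treatment, lung cancer cells in 1536-well plates were fixed and stained in a single step (final 0.05% Triton X-100, 1% formaldehyde, 1 ug/ml Hoechst) and their nuclei counted on 4× images. Treatment had been applied by pin tool the day after seeding as one drug alone or as a fixed anchor-drug dose with five library-drug doses (not always all listed) in √10 steps. Relative viability is the nuclei count of treated wells divided by that of vehicle wells, and values are medians of duplicate plates.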

AZ628 + Tozasertib = compound: CC1=C(C=C(C=C1)NC(=O)C2=CC(=CC=C2)C(C)(C)C#N)NC3=CC4=C(C=C3)N=CN(C4=O)C [AZ628] + Cc1cc(Nc2cc(N3CCN(C)CC3)nc(Sc3ccc(NC(=O)C4CC4)cc3)n2)n[nH]1 [Tozasertib] (partner 0.1 µM)
Outline: as §1

QS11 + OSI-027 = compound: C1CC2=C(C1)C=C(C=C2)OC3=NC(=C4C(=N3)N(C=N4)CC5=CC=C(C=C5)C6=CC=CC=C6)N[C@@H](CC7=CC=CC=C7)CO [QS11] + COc1cccc2cc(-c3nc([C@H]4CC[C@H](C(=O)O)CC4)n4ncnc(N)c34)[nH]c12 [OSI-027] (partner 0.5 µM)
Outline: as §1

[2] = compound: C[As](C)SC[C@H](NC(=O)CC[C@H](N)C(=O)O)C(=O)NCC(=O)O [Darinaparsin] + C[C@@H](Oc1cc(-c2cnn(C3CCNCC3)c2)cnc1N)c1c(Cl)ccc(F)c1Cl [Crizotinib] (partner 1 µM)
Outline: as §1

Cell Line | relative viability ([1]; first compound 0.08 µM) | relative viability ([1]; first compound 0.8 µM) | relative viability ([1]; first compound 2.53 µM) | relative viability ([1]; first compound 8 µM) | relative viability (AZ628 + Tozasertib; first compound 0.08 µM) | relative viability (AZ628 + Tozasertib; first compound 0.253 µM) | relative viability (AZ628 + Tozasertib; first compound 0.8 µM) | relative viability (AZ628 + Tozasertib; first compound 2.53 µM) | relative viability (AZ628 + Tozasertib; first compound 8 µM) | relative viability (QS11 + OSI-027; first compound 0.08 µM) | relative viability (QS11 + OSI-027; first compound 0.253 µM) | relative viability (QS11 + OSI-027; first compound 0.8 µM) | relative viability (QS11 + OSI-027; first compound 2.53 µM) | relative viability (QS11 + OSI-027; first compound 8 µM) | relative viability ([2]; first compound 0.08 µM) | relative viability ([2]; first compound 0.8 µM) | relative viability ([2]; first compound 2.53 µM) | relative viability ([2]; first compound 8 µM)
NCI-H1651 | 0.523 | 0.558 | 0.58 | 0.571 | 0.726 | 0.656 | 0.579 | 0.653 | 0.43 | 0.618 | 0.645 | 0.733 | 0.625 | 0.662 | 0.87 | 0.895 | 0.845 | 1.07
NCI-H1666 | 1.2 | 0.899 | 1.18 | 1.08 | 0.605 | 0.567 | 0.565 | 0.551 | 0.479 | 0.856 | 0.696 | 0.667 | 0.604 | 0.606 | 0.904 | 0.927 | 1.02 | 1.14
NCI-H1734 | 0.934 | 0.752 | 0.773 | 0.746 | 0.258 | 0.267 | 0.196 | 0.243 | 0.197 | 0.66 | 0.548 | 0.594 | 0.517 | 0.49 | 0.892 | 0.724 | 0.686 | 0.736
NCI-H1755 | 0.791 | 0.606 | 0.817 | 1.05 | 0.595 | 0.52 | 0.532 | 0.525 | 0.493 | 0.685 | 0.725 | 0.592 | 0.604 | 0.486 | 1.08 | 0.827 | 0.807 | 1.12
